Tests used:
AGE-BSA = target: T1, AGE-BSA (Bos taurus, UniProt P02769); experiment: In-vitro screening for AGE-breaking activity (AGE-BSA incubated with compound; ELISA / gel permeation chromatography); format: biochemical, bovine; details: 37° C., 24 hours
T1 construct: Bovine serum albumin (fraction V) (BSA); from tissue; host or cells: bovine serum (fraction V); own knowledge: fraction V is the albumin fraction of plasma/serum
Experimental: Fluorescence was used as the criteria to monitor the increased AGE formation.
160 mg/ml of protein, bovine serum albumin, BSA and 1.6M glucose sugar were dissolved in phosphate buffered saline, PBS. Sodium azide was added at 0.02% concentration as a preservative. The solution was filtered asceptically through a […] filter and kept for aging at 37° C. for 16 weeks. After 16 weeks the solution was dialyzed against PBS, aliquoted and stored at −20° C.
To determine the AGE breaking activity, 10 μg/ml of the 16 weeks AGE-BSA was incubated with different concentrations of the test compounds at 37° C. for 24 hours and AGE breaking activity of the test compounds by ELISA was determined.
• 1. Different concentrations of 16 weeks AGE-BSA were coated on a microtiter plate as standard. Each concentration is coated in triplicates. • 2. The test samples were coated on microtiter plate at a concentration of 5 ng. to 20 ng per well in triplicates. • 3. The plate was incubated at 37° C. for one hour. • 4. After incubation the plate was washed with PBST (PBS with 0.05% Tween 20). • 5. Blocking with 5% skimmed milk in PBS at 37° C. for one hour was done. • 6. The plate was washed with PBST. • 7. Primary antibody against AGE-BSA was added and the plate is incubated at 37° C. for one hour. • 8. The plate was washed with PBST. • 9. Secondary antibody anti rabbit HRPO (Horse-Radish Per Oxidase) conjugate was added and the plate is incubated at 37° C. for one hour. • 10. The plate was washed with PBST. • 11. Colour development with OPD (orthophenylenediamine dihydrochloride) and hydrogen peroxide was done. • 12. OD (optical density) at (450 nm reading –620 nm reading) was measured after incubation at 37° C. for 15 minutes with Microplate ELISA Reader.
The breaker activity of the compounds were determined by the following formula:
[formula] OD450-620Control=Absorbance of 20 ng AGE-BSA after incubation at 37° C. for 24 hours without test compound. OD450-620Test=Absorbance of 20 ng AGE-BSA after incubation at 37° C. for 24 hours with required concentration of test compound.
Gel Permeation Chromatography based method was used to determine AGE breaking activities of the compounds.
Separation by Gel Permeation Chromatography (GPC) depends on differences in the size, more precisely the hydrodynamic volume, of the proteins in a sample. […] The pores of a column particle are differentially accessible to smaller particles, depending on their size. This volume of the column is called (V1). The total accessible volume (Vt) is the sum of the volume outside the particles (V0) and the volume accessible inside the particles (V1): Vt=V0+Vi Therefore, in a typical Gel Permeation Chromatography (GPC) run, high molecular weight molecules elute at a lower retention time whereas lower molecular weight molecules are retained for longer time. For the purpose of quantification, the area under the curve for the respective molecule is recorded. The same principle has been applied in the in vitro screening of the molecules of instant invention. Highly cross-linked Advanced Glycosylated Endproducts (AGE) were prepared in vitro by incubating Bovine Serum Albumin (BSA) with glucose for a period of 16 weeks. […] The reduction in the area of AGE-BSA incubated in the presence of AGE breaker as compared to that of control AGE BSA (incubated in absence of AGE breaker) gives an estimate of the AGE breaker activity of the drug. In order to check the non-specific activity of the molecule, a similar experiment was repeated with BSA as well. Methodology:
A known concentration of 16-week AGE-BSA was incubated with and without a predetermined concentration of the drug at 37° C. for 24 hours in clean transparent glass test tubes. The solution without drug served as the control and the solution containing the drug was treated as the test sample.
Gel permeation chromatography was performed on equal volumes of control AGE-BSA preparation and solution of AGE-BSA treated with drug. […]

[1] = Free radical scavenging activity on ABTS radical cation; format: biochemical
Experimental: This method measures the relative ability of free radical scavenging substances to scavenge the ABTS.^+ i.e. 2,2-Azino-bis-(3-ethyl benzo thiazoline-6-sulfonate) radical cation as compared to a standard amount of standard or free radical scavengers antioxidants. Incubation of ABTS with Peroxidase (metmyoglobin) and hydrogen peroxide results in the production of radical cation ABTS.^+. This species is blue-green in colour and can be detected at 730 nm. Antioxidants or free radical scavengers in the added sample that causes suppression of the color to a degree that is proportional to their concentration.
Preparation of Buffer Solutions: • a. Phosphate Citrate Buffer (pH 5.0): 48.5 ml of 0.1M citric acid with sufficient 0.2M disodium hydrogen phosphate to produce 100 ml. • b. Phosphate Buffer Saline (PBS): Dissolve 40.0 g of NaCl, 1.0 g of KCl, 1.0 g of KH2PO4 and 3.05 g of Na2HPO4 in 1 liter milli-Q water. Dilute 200 ml of above solution to 1 liter with milli-Q water (pH 7.4–7.6).
Preparation of ABTS Stock Solution (2 mM): • 1 tablet (10 mg) was dissolved in phosphate citrate buffer (pH 5.0) to give a 2 mM solution.
Preparation of Horse Radish Peroxidase Working Solution: • 0.1 mg was dissolved in 10 ml of phosphate buffer saline, 1 ml of this solution was diluted to 100 ml with PBS.
Preparation of Hydrogen Peroxide (1.08 mM) Solution: • 12 μl of Hydrogen Peroxide (30% w/v) was diluted to 100 ml with PBS.
Preparation of Drug Solutions: • 0.1 mM of stock solution of the drug was prepared which was serially diluted in PBS to get 0.05 mM, 0.025 mM and 0.0125 mM solutions.
Preparation of ABTS Radical Stock Solution: • To 2 ml of ABTS stock solution, 1 ml of horseradish Peroxidase working solution was added. • As soon as 2 ml of Hydrogen peroxide solution was added to the above solution, blue-green colour of the ABTS radicals appeared. This solution was incubated at 30° C. for 30 min in order to ensure the completion reaction. Make up the volume to 10 ml with PBS.
Preparation of Control Solution: • 900 μl of ABTS radical stock solution were added to an eppendorf tube. To it were added 100 μl of PBS solution.
Preparation of Test Solution: • 900 μl of ABTS radical stock solutions were added to different eppendorf tubes. To it were added 100 μl of various concentrations of drug solution.
Measurement of Absorbance (O.D): • The absorbance of control and test samples was recorded immediately at 730 nm taking PBS as blank.
Calculation: • The percent antioxidant activity was calculated according to the formula: % Antioxidant activity=100−[O.D of test sample/O.D of control×100]

T1 sequence (P02769 25-607): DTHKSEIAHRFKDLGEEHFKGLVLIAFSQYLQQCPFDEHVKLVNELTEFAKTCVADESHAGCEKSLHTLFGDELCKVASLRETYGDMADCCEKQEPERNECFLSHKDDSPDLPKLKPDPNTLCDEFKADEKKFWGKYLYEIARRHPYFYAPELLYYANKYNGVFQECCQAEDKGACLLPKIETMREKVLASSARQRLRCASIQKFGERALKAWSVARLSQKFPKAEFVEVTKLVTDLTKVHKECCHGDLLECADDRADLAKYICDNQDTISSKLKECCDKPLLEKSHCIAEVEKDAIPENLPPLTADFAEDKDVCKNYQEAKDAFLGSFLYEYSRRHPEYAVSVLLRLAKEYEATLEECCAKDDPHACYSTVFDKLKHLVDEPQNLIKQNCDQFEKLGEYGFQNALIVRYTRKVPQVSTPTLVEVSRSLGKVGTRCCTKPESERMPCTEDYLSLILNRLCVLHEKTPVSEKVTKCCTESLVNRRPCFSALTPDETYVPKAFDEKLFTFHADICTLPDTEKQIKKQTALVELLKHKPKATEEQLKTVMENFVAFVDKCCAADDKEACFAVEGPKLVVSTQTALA

Compound	% Breakage (AGE-BSA; 10 mM compound) [%]	Relative Free Radical Scavenging Activity (%) on ABTS ([1]; 12.5 μM) [%]	Relative Free Radical Scavenging Activity (%) on ABTS ([1]; 25.0 μM) [%]	Relative Free Radical Scavenging Activity (%) on ABTS ([1]; 50.0 μM) [%]	Relative Free Radical Scavenging Activity (%) on ABTS ([1]; 100.0 μM) [%]	% Breakage (AGE-BSA; 1.0 mM compound) [%]	% Breakage (AGE-BSA; 5 mM compound) [%]
1-(2-Cyclopropylamino-2-oxoethyl)-3-[(1-cyclohexyl-3-phenylmethyl)pyrazol-5-yl]pyridinium chloride [Compound 23]	53.29						
1-(2-Cyclopropylamino-2-oxoethyl)-3-[(3-(2-cyclohexylethyl)pyrazol-5-yl]pyridinium chloride [Compound 21]	93.43						
1-(2-Thien-2′-yl-2-oxoethyl)-3-[(1-cyclohexyl-3-phenoxymethyl)pyrazol-5-yl]pyridinium chloride [Compound 38]		27.70	44.78	61.98	66.92		
Cc1cc(C)n(Cc2cc(-c3ccc[n+](CC(=O)NC4CC4)c3)[nH]n2)n1.[Br-] [Compound 7, 1-[2-(Cyclopropylamino)-2-oxoethyl]3-[3-{(3,5-dimethylpyrazol-1-yl)methyl}-pyrazol-5-yl]-pyridinium bromide]						51.72	
Cc1cc(C)n(Cc2cc(-c3ccc[n+](CC(=O)c4cc([N+](=O)[O-])cs4)c3)[nH]n2)n1.[Br-] [Compound 8, 1-{2-(4-Nitro-2-thienyl)-2-oxoethyl}-3-[3{(3,5-dimethylpyrazol-1-yl)methyl}-pyrazol-5-yl]-pyridinium bromide]		22.22	38.18	67.14	99.71		85.31
Cc1ccc(C(=O)C[n+]2cccc(-c3cc(Cc4ccccc4)n[nH]3)c2)s1.[Cl-] [Compound 12, 1-(2-(5-Methyl-2-Thienyl)-2-oxoethyl)-3-[(3-phenylmethyl)pyrazol-5-yl]pyridinium chloride]	89.23	22.34	40.97	71.47	84.62		
O=C(C[n+]1cccc(-c2cc(Cc3ccccc3)n[nH]2)c1)c1ccccc1.[Br-] [Compound 14, 1-(2-Phenyl-2-oxoethyl)-3-[(3-phenylmethyl)pyrazol-5-yl]-pyridinium bromide]	58.14						
O=C(C[n+]1cccc(-c2cc(Cc3ccccc3)nn2-c2ccccc2)c1)NC1CC1.[Cl-] [Compound 15, 1-(2-Cyclopropylamino-2-oxoethyl) 3-[(1-phenyl-3-phenylmethyl)pyrazol-5-yl]-pyridinium chloride]	80.03						
O=C(C[n+]1cccc(-c2cc(COc3ccccc3)n[nH]2)c1)N1CCC(Cc2ccccc2)CC1.[Br-] [Compound 16, 1-(2-(4-Benzyl-1-piperidinyl)-2-oxoethyl) 3-[(3-phenoxymethyl)pyrazol-5-yl]-pyridinium bromide]	95.51						
Cc1ccc(C(=O)C[n+]2cccc(-c3cc(CCC4CCCCC4)n[nH]3)c2)s1.[Cl-] [Compound 20]		6.15	9.06	34.31	57.75		
O=C(C[n+]1cccc(-c2cc(Cc3ccccc3)n[nH]2)c1)NC12CC3CC(CC(C3)C1)C2.[Cl-] [Compound 25, 1-{2-(1-Adamantylamino-2-oxoethyl)}-3-[(3-phenylmethyl)pyrazol-5-yl]pyridinium chloride]							98.59
Cc1cc(C)n(Cc2cc(-c3ccc[n+](CC(=O)c4cc([N+](=O)[O-])cs4)c3)n(C3CCCCC3)n2)n1.[Br-] [Compound 27, 1-(2-(4-nitro-2-thienyl)-2-oxoethyl)-3-[(1-cyclohexyl-3-(3,5-dimethylpyrazol-1-yl)-methyl)pyrazol-5-yl]pyridinium bromide]	86.98	16.16	27.12	39.05	51.04		
O=C(C[n+]1cccc(-c2cc(COc3ccccc3)n[nH]2)c1)NC1CC1.[Cl-] [Compound 31, 1-(2-Cyclopropylamino-2-oxoethyl)-3-[(3-phenoxymethyl)pyrazol-5-yl]pyridinium chloride]	45.72						
O=C(C[n+]1cccc(-c2cc(CCC3CCCCC3)nn2-c2ccccc2)c1)c1cccs1.[Br-] [Compound 37, 1-(2-Thien-2′-yl-2-oxoethyl)-3-[1-phenyl-3-(2-cyclohexylethyl)pyrazol-5-yl]pyridinium bromide]	85.45	21.79	37.92	41.95	39.46		
Cl.c1ccc(OCc2cc(-c3cccnc3)[nH]n2)cc1 [Compound 40, 3-[(3-Phenoxymethyl)pyrazol-5-yl]pyridine hydrochloride]	66.06						
